Our source for the IC50 values is patent US5385918A, “Aminomethylene-peptides as immunosuppressants” (Miles Inc., priority 1993, dated 1995).

One test has as its system NF-AT (FGL-5 cells). The test can be described thus: NF-AT Inhibition Assay Directed β-Galactosidase Expression. Format: cell-based. The protocol:
Inhibition of NF-AT activity is measured using FGL-5 cells. FGL-5 is a cloned line of stably transfected Jurkat T-cells that contain a construct in which three tandem copies of the NF-AT DNA binding site direct transcription of the lacZ gene, encoding β-galactosidase (Fiering et al., 1990, Genes & Development 4:1823). When these cells are stimulated with phorbol esters which activate protein kinase C and calcium ionophore to raise the intracellular calcium concentration, transcriptionally active NF-AT is produced. In T-cells, this normally leads to the expression of IL-2, T-cell growth factor. However, in FGL-5 cells NF-AT activation leads to the production of β-galactosidase which can be detected using an appropriate substrate.
This assay was performed essentially as described (Bierer et al., 1990, Proc. Natl. Acad. Sci. 87:923 1). FGL-5 cells were maintained in medium consisting of RPMI-1640 with 10% FBS, 2 mM L-glutamine, 1% Penicillin-Streptomycin and 15 mM HEPES buffer. The assays were done with exponentially growing cells whose density was not greater than 0.5 million cells/ml. The cells were resuspended to 3 million cells/ml in medium and 0.1 ml was added to wells of a 96-well plate.
The compounds of the present invention were dissolved in either ethanol or dimethylsulfoxide at 10 mM and 0.05 ml/well of various dilutions in medium were added to cells in duplicate wells. Treatment controls consisted of duplicate wells to which 0.05 ml/well of either medium, ethanol or dimethylsulfoxide was added. The ethanol and dimethyl sulfoxide were at the same concentration as was used for the compounds. Cells were incubated with compounds at room temperature for 10-15 minutes. Phorbol dibutyrate (Sigma) and Ionomycin (Calbiochem) were dissolved at 50 μg/ml and 2 mM, respectively and stored at -70° C.
FGL-5 cells were stimulated by diluting these reagents with medium to 200 ng/ml and 8 μM, respectively and adding of 0.05 ml/well. For unstimulated cell controls, 0.05 ml/well of medium was added to duplicate wells. The plates were incubated overnight (16-18 hours) at 37° C. in a humidified atmosphere of 5% CO2 and air.
β-galactosidase activity was measured as the fluorescence generated by the cleavage of 4-methyl umbelliferyl-β-D-galactoside (Sigma) at the β-galactoside bond. After overnight incubation, the cells were centrifuged at 500×g for 3 minutes in the 96-well plates and washed 3 times with PBS. The cells were then resuspended in 0.18 ml/well of reaction medium containing 100 mM sodium phosphate buffer, pH 7.0, 10 mM potassium chloride, 1 mM magnesium sulfate, 0.1% Triton X-100 (Pierce, Rockford, Ill.), and 0.5 mM 4-methylumbelliferyl-β-D-galactoside.
The fluorescence at 460 nm using 3 55 nm excitation was measured at intervals over 1-2 hours (during which fluorescence increased linearly with time) with a LS50 Luminescence Spectrometer (Perkin Elmer).
The percent inhibition by each concentration of the compounds was calculated as: [formula]
The values of the concentration of compounds required for 50% inhibition (IC50) were determined by linear regression analysis of the percent inhibition at various compound concentrations.

The target of a further test is FKBP (Homo sapiens, UniProt P62942). Nature of the test: PPIase Inhibition Assay. The format is biochemical. Particulars: inhibition of PPIase activity of FKBP, substrate Succinyl-Ala-Phe-Pro-Phe-para-nitroanilide. The procedure: This assay follows in principle the procedure described in Kofron et al., 1991, Biochemistry 30:6127. The three main reagents used are PPIase, a substrate for PPIase, and a selected inhibitor compound of the present invention. The basic principle behind this assay is the conversion of the cis isomer of the substrate to the trans form, which conversion is catalyzed by PPIase. Essentially, inhibition of this PPIase activity is measured for the selected compounds. A peptide chymotrypsin substrate containing a proline in the P2 position is only cleaved by chymotrypsin when the Phe-Pro bond is in the trans isomeric configuration. In the presence of excess chymotrypsin, all of the trans peptide isomers are cleaved within approximately five seconds, leaving only cis forms.
The cis peptide will spontaneously convert to the trans isomer at a slow rate. The cis to trans conversion is catalyzed by isomerases at a much faster rate than this spontaneous conversion. Proteins with PPIase activity are examples of such isomerases. After isomerization, the peptide is cleaved by chymotrypsin releasing p-nitroaniline which can be monitored at 390 nm. The rate of release is then calculated using a first order rate plus offset equation utilizing the ENZFITTER program (Leatherbarrow, BIOSOFT, Cambridge, United Kingdom).
In a plastic cuvette are added 950 ul of ice cold assay buffer (25 mM HEPES, pH 7.8, 100 mM NaCl), 10 uL of FKBP (2.5 uM in 10 mM Tris-Cl pH 7.5, 100 mM NaCl, 1 mM dithiothreitol), 25 ul of chymotrypsin (50 mg/ml in 1 mM HCl) and 10 ul of the test compound at various concentrations in dimethyl sulphoxide. The reaction is initiated by addition of 5 ul of substrate (Succinyl-Ala-Phe-Pro-Phe-para-nitroanilide, 5 mg/ml in 235 mM LiCl in trifluoroethanol).
The absorbance at 390 nm versus time is monitored for 90 sec using a Beckman DU70 spectrophotometer. The absorbance versus time data files are transferred to an IBM XT computer and the rate constants determined using the commercial Enzfitter program. For each set of data, the uncatalyzed rate of conversion is measured and the uninhibited enzymatic rate determined. The data are expressed as % Inhibition and are calculated as follows: [formula] where kobs is the rate in the presence of a selected test compound, kuncat is the rate in the absence of enzyme, and kuninh is the rate in the presence of enzyme and absence of inhibitor. Data are plotted as percent inhibition versus concentration of inhibitor. The values of the concentration of inhibitor required for 50% inhibition of enzyme activity (IC50) were determined by nonlinear least squares regression analysis.

Setting [1] is: inhibition of β-galactosidase activity in FGL-5 cells stimulated with phorbol dibutyrate and ionomycin, read-out: IC50.
Where [2] appears, read: stimulated FGL-5 cells, read-out: IC50 for NF-AT directed β-galactosidase expression.

Where two headings read alike, the source gives them in different places. Bounds are passed on as bounds.

Chain of FKBP (P62942 whole entry): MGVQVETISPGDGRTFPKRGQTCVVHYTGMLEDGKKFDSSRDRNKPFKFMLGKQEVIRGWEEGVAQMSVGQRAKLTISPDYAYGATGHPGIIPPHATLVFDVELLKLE

For `CC[C@H](C)[C@H](NC(=O)[C@@H]1CCCN1C[C@@H](NC(=O)OC(C)(C)C)C(C)C)C(=O)NCc1ccccc1` [Example 17, 1-[1-[2-(S)-[[(1,1-dimethylethoxy)carbonyl]amino]-3-methylbutyl]-L-proline] -L-isoleucine Benzylamide], the IC50 is 29 µM in the test on NF-AT (FGL-5 cells) (setting [1]), no more than 10 µM in the test on NF-AT (FGL-5 cells) (setting [2]) and 470 nM against FKBP.
For the molecule `CC[C@H](C)[C@H](NC(=O)[C@@H]1CCCCN1C[C@H](CC(C)C)NC(=O)OC(C)(C)C)C(=O)NCc1ccccc1` [Example 18, 1-[1-[2-(S)-[[(1,1-Dimethylethoxy)carbonyl]amino]-4-methylpentyl]-L-homoproline]-L-isoleucine Benzylamide], the results for the IC50 in the test on NF-AT (FGL-5 cells) (setting [1]) and on FKBP were greater than 15 µM and 1300 nM, respectively.
In the same order, the values of `CC[C@H](C)[C@H](NC(=O)[C@@H]1CCCCN1C[C@@H](NC(=O)OC(C)(C)C)[C@@H](C)CC)C(=O)NCc1ccccc1` [Example 3, 1-[1-[2-(S)-[[(1,1-Dimethylethoxy)carbonyl]amino]-3-(S)-methylpentyl]-L-homoproline]-L-isoleucine Benzylamide] are 1 µM and 5000 nM.
In the same order, the values of `CCC(C)[C@@H](CN1CCC[C@H]1C(=O)N[C@H](C(=O)NCc1ccccc1)[C@@H](C)CC)NC(=O)[C@@H](N)CC1CCCCC1` (stereo partly drawn) [Example 8] are greater than 15 µM and 160 nM.
The matching figures for `CC[C@H](C)[C@@H](CN1CCCC[C@H]1C(=O)N[C@H](C(=O)NCc1ccccc1)[C@@H](C)OCc1ccccc1)NC(=O)OC(C)(C)C` [Example 19, 1-[1-[2-(S)-[[(1,1-Dimethylethoxy)carbonyl]amino]-3-(S)-methylpentyl]-L-homoproline]-L-threonene(O-Benzyl Ether)Benzylamide]: 9 µM and 5000 nM.
As for `CCC(C)[C@@H](CN1CCC[C@H]1C(=O)N[C@H](C(=O)NCc1ccccc1)[C@@H](C)CC)NC(=O)[C@H](CC1CCCCC1)NC(=O)OC(C)(C)C` (stereo partly drawn) [Example 7, 1-[1-[2-(S)-[[2-(S)-[[(1,1-Dimethylethoxy)carbonyl]amino]-1-oxo-3-cyclohexylpropyl]amino]-3-methylpentyl]-L-proline]-L-isoleucine Benzylamide], the IC50 was greater than 15 µM in the test on NF-AT (FGL-5 cells) (setting [1]) and 130 nM at FKBP.
The matching figures for `CC[C@H](C)[C@H](NC(=O)[C@@H]1CCCN1C[C@@H](NC(=O)OC(C)(C)C)[C@@H](C)CC)C(=O)NCc1ccccc1` [Example 6]: 8 µM and 390 nM.
In the same order, the values of `CC[C@H](C)[C@H](NC(=O)[C@@H]1CCCN1C[C@H](CC1CCCCC1)NC(=O)OC(C)(C)C)C(=O)NCc1ccccc1` [Example 16, 1-[1-[2-(S)-[[(1,1-dimethylethoxy)carbonyl]amino]-3-cyclohexylpropyl]-L-proline]-L-isoleucine Benzylamide] are 19 µM and greater than 5000 nM.
In the same order, the values of `CC[C@H](C)[C@H](NC(=O)[C@@H]1CCCN1C[C@H](CC(C)C)NC(=O)OC(C)(C)C)C(=O)NCc1ccccc1` [Example 2, 1-[1-[2-(S)-[[(1,1-Dimethylethoxy)carbonyl]amino]-4-methylpentyl]-L-proline]-L-isoleucine Benzylamide] are 13 µM and 570 nM.
Take `CC[C@H](C)[C@H](NC(=O)[C@@H]1CCCN1C[C@H](CC(C)C)NC(=O)[C@H](CC(N)=O)NC(=O)[C@H](Cc1ccccc1)NC(=O)OC(C)(C)C)C(=O)OCc1ccccc1` [Example 14, 1-[1-[2-(S)-[[1-[1-[(1,1-Dimethylethoxy)carbonyl]-L-phenylalanyl]-L-asparaginyl]amino]-4-methylpentyl]-L-proline]-L-isoleucine Phenylmethyl Ester]: the IC50 was no more than 10 µM in the test with NF-AT (FGL-5 cells) (setting [2]) and less than 50000 nM against FKBP.

For orientation: IC50 means the midpoint of a concentration-inhibition curve.
